pIC50: −log10 of the molar value.
Test system: K562
Test: Cytotoxic activity against K562 erythroleukemic cells
Assay type: functional, cell-based
Conditions: Homo sapiens

CC(=O)[C@]1(O)Cc2c(O)c3c(c(O)c2[C@@H](O[C@H]2C[C@H](N)[C@H](O)[C@H](C)O2)C1)C(=O)c1ccccc1C3=O [IDARUBICIN]
pIC50: 8.70

Source: ChEMBL document CHEMBL1132317, “Solution structure of iron(III)-anthracycline complexes” (J Med Chem, 1999)
